{
  "source": "PubChem BioAssay (NCI)",
  "experiment_in_all_cases": "NCI tumour cell line growth inhibition, 48 h",
  "key": {"NCI-H460 lung": {"test_system": "NCI-H460 lung"}, "DLD-1 colon": {"test_system": "DLD-1 colon"}, "EKVX NSCLC": {"test_system": "EKVX NSCLC"}, "MALME-3M melanoma": {"test_system": "MALME-3M melanoma"}, "DMS 273 small cell lung": {"test_system": "DMS 273 small cell lung"}, "HCC-2998 colon": {"test_system": "HCC-2998 colon"}, "DMS 114 small cell lung": {"test_system": "DMS 114 small cell lung"}, "SK-MEL-28 melanoma": {"test_system": "SK-MEL-28 melanoma"}, "OVCAR-5 ovarian": {"test_system": "OVCAR-5 ovarian"}, "HCT-116 colon": {"test_system": "HCT-116 colon"}, "SK-MEL-5 melanoma": {"test_system": "SK-MEL-5 melanoma"}, "P388 leukemia": {"test_system": "P388 leukemia"}, "A549 NSCLC": {"test_system": "A549 NSCLC"}, "SF-268 CNS": {"test_system": "SF-268 CNS"}, "HL-60(TB) leukemia": {"test_system": "HL-60(TB) leukemia"}, "NCI-H23 lung": {"test_system": "NCI-H23 lung"}, "T-47D breast": {"test_system": "T-47D breast"}, "BT-549 breast": {"test_system": "BT-549 breast"}, "SR leukemia": {"test_system": "SR leukemia"}, "UACC-62 melanoma": {"test_system": "UACC-62 melanoma"}, "MDA-N": {"test_system": "MDA-N"}, "A498 renal": {"test_system": "A498 renal"}, "UACC-257 melanoma": {"test_system": "UACC-257 melanoma"}, "MDA-MB-435": {"test_system": "MDA-MB-435"}, "SN12K1 renal": {"test_system": "SN12K1 renal"}, "786-0 renal": {"test_system": "786-0 renal"}, "SNB-78 CNS": {"test_system": "SNB-78 CNS"}, "HT29 colon": {"test_system": "HT29 colon"}, "IGROV1 ovarian": {"test_system": "IGROV1 ovarian"}, "COLO 205 colon": {"test_system": "COLO 205 colon"}, "HOP-18 NSCLC": {"test_system": "HOP-18 NSCLC"}, "U251 CNS": {"test_system": "U251 CNS"}, "SNB-19 CNS": {"test_system": "SNB-19 CNS"}, "M14 melanoma": {"test_system": "M14 melanoma"}, "SF-539 CNS": {"test_system": "SF-539 CNS"}, "M19-MEL melanoma": {"test_system": "M19-MEL melanoma"}, "XF 498 CNS": {"test_system": "XF 498 CNS"}, "MCF7 breast": {"test_system": "MCF7 breast"}, "KM12 colon": {"test_system": "KM12 colon"}, "RXF 393 renal": {"test_system": "RXF 393 renal"}, "RPMI-8226 leukemia": {"test_system": "RPMI-8226 leukemia"}, "K-562 leukemia": {"test_system": "K-562 leukemia"}, "HCT-15 colon": {"test_system": "HCT-15 colon"}, "NCI-H522 lung": {"test_system": "NCI-H522 lung"}, "HS 578T breast": {"test_system": "HS 578T breast"}, "P388/ADR leukemia": {"test_system": "P388/ADR leukemia"}, "KM20L2 colon": {"test_system": "KM20L2 colon"}, "CCRF-CEM leukemia": {"test_system": "CCRF-CEM leukemia"}, "SW-620 colon": {"test_system": "SW-620 colon"}, "MDA-MB-231 breast": {"test_system": "MDA-MB-231 breast"}},
  "note": "Several values for one entry are separate records, joined by “and”; a condition that tells them apart may be missing. Equal values may be shown once.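 Grown in 96-well plates, cells were treated for 48 hours with each compound at five concentrations. Insufficient inhibition: endpoint recorded as highest concentration tested. GI50 marks 50% less growth. TGI denotes the concentration required for complete inhibition of growth.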",
  "data": [
    {"molecule": "CN1N=C(N)c2cn(C3OC(COP(=O)(O)O)C(O)C3O)c3ncnc1c23", "note": "(configuration not stated)", "values": [
      {"measurement": "TGI", "setting": "NCI-H460 lung", "value": "500 µM and > 1650 µM and 3460 µM"},
      {"measurement": "TGI", "setting": "DLD-1 colon", "value": 617, "unit": "µM"},
      {"measurement": "TGI", "setting": "EKVX NSCLC", "value": "500 µM and 1650 µM and 360 µM"},
      {"measurement": "TGI", "setting": "MALME-3M melanoma", "value": "305 µM and 1650 µM and 2090 µM"},
      {"measurement": "TGI", "setting": "DMS 273 small cell lung", "value": "> 5000", "unit": "µM"},
      {"measurement": "TGI", "setting": "HCC-2998 colon", "value": "500 µM and 1650 µM and > 4830 µM"},
      {"measurement": "TGI", "setting": "DMS 114 small cell lung", "value": "> 4300", "unit": "µM"},
      {"measurement": "GI50", "setting": "SK-MEL-28 melanoma", "value": "118 µM and 312 µM"},
      {"measurement": "TGI", "setting": "SK-MEL-28 melanoma", "value": "500 µM and 1650 µM and 2420 µM"},
      {"measurement": "TGI", "setting": "OVCAR-5 ovarian", "value": "207 µM and 1650 µM and 475 µM"},
      {"measurement": "TGI", "setting": "HCT-116 colon", "value": "468 µM and 1650 µM and > 4540 µM"},
      {"measurement": "TGI", "setting": "SK-MEL-5 melanoma", "value": "500 µM and > 1650 µM and > 4390 µM"},
      {"measurement": "TGI", "setting": "P388 leukemia", "value": 7.87, "unit": "µM"},
      {"measurement": "TGI", "setting": "A549 NSCLC", "value": "500 µM and 1650 µM and > 4780 µM"},
      {"measurement": "TGI", "setting": "SF-268 CNS", "value": "500 µM and 1650 µM and > 4850 µM"},
      {"measurement": "TGI", "setting": "HL-60(TB) leukemia", "value": "114 µM and 123 µM and 116 µM"},
      {"measurement": "TGI", "setting": "NCI-H23 lung", "value": "500 µM and 1650 µM and 4180 µM"},
      {"measurement": "TGI", "setting": "T-47D breast", "value": "327 µM and 1650 µM and 269 µM"},
      {"measurement": "GI50", "setting": "BT-549 breast", "value": "20.1 µM and 4.86 µM"},
      {"measurement": "TGI", "setting": "BT-549 breast", "value": "135 µM and 626 µM and 114 µM"},
      {"measurement": "TGI", "setting": "SR leukemia", "value": "500 µM and > 1650 µM and > 5000 µM"},
      {"measurement": "GI50", "setting": "UACC-62 melanoma", "value": "22.6 µM and 96.1 µM"},
      {"measurement": "TGI", "setting": "UACC-62 melanoma", "value": "290 µM and 1650 µM and 1880 µM"},
      {"measurement": "GI50", "setting": "MDA-N", "value": 25.2, "unit": "µM"},
      {"measurement": "TGI", "setting": "MDA-N", "value": "390 µM and > 1530 µM"},
      {"measurement": "GI50", "setting": "A498 renal", "value": "68.5 µM and 40.6 µM"},
      {"measurement": "TGI", "setting": "A498 renal", "value": "391 µM and 1650 µM and 713 µM"},
      {"measurement": "TGI", "setting": "UACC-257 melanoma", "value": "500 µM and 1650 µM and 4660 µM"},
      {"measurement": "TGI", "setting": "MDA-MB-435", "value": "363 µM and 671 µM"},
      {"measurement": "TGI", "setting": "SN12K1 renal", "value": "> 5000", "unit": "µM"},
      {"measurement": "TGI", "setting": "786-0 renal", "value": "500 µM and 1650 µM and > 3510 µM"},
      {"measurement": "TGI", "setting": "SNB-78 CNS", "value": 2910, "unit": "µM"},
      {"measurement": "TGI", "setting": "HT29 colon", "value": "500 µM and 1650 µM and > 4630 µM"},
      {"measurement": "TGI", "setting": "IGROV1 ovarian", "value": "500 µM and 1650 µM and 918 µM"},
      {"measurement": "TGI", "setting": "COLO 205 colon", "value": "499 µM and > 1650 µM and 2170 µM"},
      {"measurement": "TGI", "setting": "HOP-18 NSCLC", "value": 333, "unit": "µM"},
      {"measurement": "TGI", "setting": "U251 CNS", "value": "500 µM and 1650 µM and > 5000 µM"},
      {"measurement": "TGI", "setting": "SNB-19 CNS", "value": "455 µM and 1650 µM and 3170 µM"},
      {"measurement": "TGI", "setting": "M14 melanoma", "value": "500 µM and 1650 µM and 1670 µM"},
      {"measurement": "TGI", "setting": "SF-539 CNS", "value": "162 µM and 807 µM and 208 µM"},
      {"measurement": "TGI", "setting": "M19-MEL melanoma", "value": "> 4220", "unit": "µM"},
      {"measurement": "TGI", "setting": "XF 498 CNS", "value": 44.9, "unit": "µM"},
      {"measurement": "TGI", "setting": "MCF7 breast", "value": "500 µM and 1650 µM and 3650 µM"},
      {"measurement": "TGI", "setting": "KM12 colon", "value": "500 µM and > 1650 µM and > 5000 µM"},
      {"measurement": "GI50", "setting": "RXF 393 renal", "value": 41.9, "unit": "µM"},
      {"measurement": "TGI", "setting": "RXF 393 renal", "value": "236 µM and 462 µM and 460 µM"},
      {"measurement": "GI50", "setting": "RPMI-8226 leukemia", "value": 143, "unit": "µM"},
      {"measurement": "TGI", "setting": "RPMI-8226 leukemia", "value": "500 µM and > 4750 µM"},
      {"measurement": "TGI", "setting": "K-562 leukemia", "value": "500 µM and > 1650 µM and > 5000 µM"},
      {"measurement": "TGI", "setting": "HCT-15 colon", "value": "500 µM and 1650 µM and 2630 µM"},
      {"measurement": "TGI", "setting": "NCI-H522 lung", "value": "500 µM and > 1650 µM and > 5000 µM"},
      {"measurement": "TGI", "setting": "HS 578T breast", "value": "232 µM and 341 µM and 144 µM"},
      {"measurement": "TGI", "setting": "P388/ADR leukemia", "value": 2.94, "unit": "µM"},
      {"measurement": "TGI", "setting": "KM20L2 colon", "value": "> 4370", "unit": "µM"},
      {"measurement": "TGI", "setting": "CCRF-CEM leukemia", "value": "500 µM and 1650 µM and > 5000 µM"},
      {"measurement": "TGI", "setting": "SW-620 colon", "value": "500 µM and > 1650 µM and > 4130 µM"},
      {"measurement": "TGI", "setting": "MDA-MB-231 breast", "value": "163 µM and 259 µM"}
    ]}
  ]
}
